Experimental data from US20120202744A1, “DUAL ANTAGONISM OF ENDOTHELIN TYPE A AND BRADYKININ B1 RECEPTORS FOR TREATING PAIN AND PREVENTING CARTILAGE DEGRADATION” (priority 2011, published 2012).
Non-standard residues stand in square brackets, D forms with d. Residues, ends and D or L forms follow the SMILES beside them.

Key:
[1] = test system: rat anterior cruciate ligament transection (ACLT) model of osteoarthritis; experiment: Cartilage and bone histomorphology (Safranin O/Fast Green) with OARSI histopathology scoring; assay type: in vivo; conditions: ACLT rats, eight weeks post-operatively, maximum value 24
Protocol: After radiological examination, knee samples were fixed in 10% neutral buffered formalin for two weeks, decalcified with RDO Rapid Decalcifier™ (Apex Engineering Products, Aurora, Ill.) for three days, circulated, and embedded in paraffin. Five-micron sagittal sections were acquired from the middle of the knee joint. Histomorphological staining was performed as previously described [Rosenberg L: Chemical basis for the histological use of safranin O in the study of articular cartilage. J Bone Joint Surg Am 1971, 53:69-82]: slides were deparrafinized, rehydrated, stained with Safranin O (which colours proteoglycans red) and Fast Green FCF (which colours collagens green), counterstained with hematoxylin, dehydrated, cleared, and mounted in Permount™. […]
Four slides from each condition were scored by two blinded examiners using the Osteoarthritis Research Society International (OARSI) histopathology assessment system [Pritzker K P H, Gay S, Jimenez S A, Ostergaard K, Pelletier J P, Revell P A, Salter D, van den Berg W B: Osteoarthritis cartilage histopathology: grading and staging. […]
OARSI scores were statistically analyzed by one-way ANOVA, with total scores taken as the dependent variable and treatment group as the independent variable. […]

[2] = test system: rat anterior cruciate ligament transection (ACLT) model of osteoarthritis; experiment: Digital micro-X-ray (DX) OA radiological scoring of knee joints; assay type: in vivo; conditions: ACLT rats; for Mean radiological score: DX views, maximum possible score nine; for radiological indices of disease progression (DX) versus saline-treated controls: 0.0020≦P≦0.0214
Source text: (§1) At four or eight weeks post-surgery, animals were sacrificed by cardiac puncture under deep isoflurane anaesthesia. The right knee was dissected, and 40-mm-long samples were cut and stored in phosphate-buffered saline until scanned by digital micro-X-ray (DX) and/or micro-magnetic resonance (MR) imaging. Samples were dissected the same day as the radiological scans.
All knee samples were X-rayed using a Faxitron MX-20™ specimen X-ray system (Faxitron X-Ray Corporation, Lincolnshire, Ill.). Anteroposterior and lateral views were acquired at 5× magnification (10×10 μm pixel size) using a dose of 26 kV for 6 seconds. Images were analyzed using OsiriX™ software (version 3.7.1) [Rosset et al. OsiriX: an open-source software for navigating in multidimensional DICOM images. Journal of digital imaging (2004) 17(3): 205-16]. Radiological evidence of joint degradation, such as joint space narrowing and osteophyte formation, was evaluated. Radiological evidence of joint degradation was scored by two blinded examiners using an OA radiological score modified from Clark et al. [Clark R L, Cuttino JT Jr, Anderle S K, Cromartie W J, Schwab J H: Radiologic analysis of arthritis in rats after systemic injection of streptococcal cell walls. Arthritis Rheum 1979, 22:25-35.] and Esser et al. [Esser R E, Hildebrand A R, Angelo R A, Watts L M, Murphey M D, Baugh L E: Measurement of radiographic changes in adjuvant-induced arthritis in rats by quantitative image analysis. Arthritis Rheum 1995, 38:129-38.]. Bone demineralization, subchondral bone erosion, and heterotopic ossification were all scored on a scale from zero (normal) to three (marked degenerative changes). Total scores were calculated by summing the individual scores for each index, with a maximum possible score of nine.
OA radiological scores were statistically analyzed by one-way ANOVA, with total scores taken as the dependent variable and treatment group as the independent variable. Pairwise post-hoc testing with Holm correction was used to establish significance in between treatment groups. P-values less than 0.05 were considered statistically significant. Analyses were conducted using R (version 2.11.0) [R Development Core Team: R: A Language and Environment for Statistical Computing. Vienna, Austria: R Foundation for Statistical Computing 2010.].

[3] = test system: COX-2; experiment: COX-2 immunohistochemistry on articular cartilage of surgically induced OA; assay type: in vivo, rat; conditions: surgery-induced OA rats
Source text: FIGS. 11A-11D are photomicrographs depicting the effect of BQ-123+R-954 dual inhibition. […] Tissues were obtained from surgery induced OA in a rat model Top panel represent COX-2 immunodetection on tissues from non-treated lesioned animals (FIG. 11A); BQ-123 treatment (FIG. 11B); R-954 treatment (FIG. 11C); BQ-123+R-954 dual treatment (FIG. 11D). Specific immune staining for COX-2 protein is observed as a darker color. Surgery, pharmacological treatment, and tissue collection and processing were performed as described in Kaufman et al., Arthritis Research and Therapy, 2011, 13:R76. FIG. 11E is a bar graph depicting the percentage of COX-2-positive chondrocytes in each of the conditions (mean of 5 slides counted per condition).
Method: 5-micron sections were processed for immunohistochemical detection of cyclooxygenase COX-2 as described above.

[4] = test system: articular cartilage of ACLT rat knee; experiment: Micro-magnetic resonance imaging of knee, cartilage mean T2; assay type: in vivo; conditions: ACLT rats, four weeks post-operatively; statistical significance between groups not achieved
Source text: as §1
A subset of animals were sacrificed four weeks post-operatively and their right knees were imaged by micro-MR. Imaging was performed using a Bruker PharmaScan™ (Ettlingen, Germany) 7 Tesla MR scanner at the McGill University Small Animal Imaging Lab (Montreal, QC). Knee samples were placed in a custom-made support inside a 15-mL centrifuge tube, which was then filled with the MR-inert buffer FC-770™ (3M Fluorinert™ Electronic Liquid). Samples were introduced into a 1H mouse brain radio frequency (RF) coil (inner diameter 22 mm), and centred in the magnet. The RF coil was tuned and matched to the sample, and the magnet was then shimmed. The system was controlled via Bruker ParaVision™ software (version 5.0). […]
After acquisition, images were analyzed using OsiriX software (version 3.7.1). […] As well, images were analyzed for signs of cartilage decay, indicated by lower signal intensity of the articular surfaces. […]

[5] = target: bradykinin receptor B2 (Homo sapiens, UniProt P30411); conditions: patients with painful knee osteoarthritis, intra-articular; cited from earlier work
Chain of bradykinin receptor B2 (P30411 whole entry): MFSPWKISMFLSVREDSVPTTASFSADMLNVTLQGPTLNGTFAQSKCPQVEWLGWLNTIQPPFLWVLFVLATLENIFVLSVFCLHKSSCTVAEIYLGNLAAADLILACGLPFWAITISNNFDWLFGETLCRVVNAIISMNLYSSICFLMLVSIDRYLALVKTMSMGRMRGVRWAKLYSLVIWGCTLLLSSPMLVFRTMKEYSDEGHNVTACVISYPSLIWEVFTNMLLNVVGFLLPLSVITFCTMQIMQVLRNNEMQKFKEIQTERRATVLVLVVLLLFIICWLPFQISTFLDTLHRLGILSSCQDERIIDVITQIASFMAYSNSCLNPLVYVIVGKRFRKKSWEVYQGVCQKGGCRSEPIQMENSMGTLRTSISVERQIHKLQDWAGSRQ

Row | SMILES | Mean OARSI score [1] | Mean radiological score [2] | radiological indices of disease progression (DX) versus saline-treated controls [2] | COX-2 staining on articular cartilage [3] | Mean T2 value [4] [ms] | analgesia in knee OA [5] | anti-inflammatory effect in knee OA [5]
1 | CC(C)C[C@@H]1NC(=O)[C@@H](C(C)C)NC(=O)[C@@H]2CCCN2C(=O)[C@@H](CC(=O)O)NC(=O)[C@@H](Cc2c[nH]c3ccccc23)NC1=O [BQ-123] (cyclo(L[dW][dD]P[dV])) | 10.25 | 2.83 | significantly ameliorated radiological indices of disease progression | diminished | 61.13 |  | 
2 | NC(N)=NCCC[C@@H](N)C(=O)N[C@@H](CCCN=C(N)N)C(=O)N1CCC[C@H]1C(=O)N1C[C@H](O)C[C@H]1C(=O)NCC(=O)N[C@@H](Cc1cccs1)C(=O)N[C@@H](CO)C(=O)N1Cc2ccccc2C[C@@H]1C(=O)N1[C@H](C(=O)N[C@@H](CCCN=C(N)N)C(=O)O)C[C@@H]2CCCC[C@@H]21 [Icatibant] |  |  |  |  |  | provided local analgesia | no anti-inflammatory effect could be detected
3 | C=C(N)NCC[C@@H](CC(=O)[C@@H](CCCC)CC(C)=O)C(=O)N1[C@H]2CCCC[C@@]2(C)C[C@H]1C(=O)N1CCC[C@@H]1C(=O)CCC(=O)NC(C)(Cc1ccccc1)C(=O)NC(CO)C(=O)C[C@H](Cc1cccc2ccccc12)C(=C)CC(C(=O)O)[C@H](C)CC (some centres unmarked) [R-954] | 4.25 | 2.50 | significantly ameliorated radiological indices of disease progression |  | 64.38 |  | 
